ChEMBL document CHEMBL4024704, “Idiopathic Pulmonary Fibrosis: Current Status, Recent Progress, and Emerging Targets” (J Med Chem, 2017)
One block for each molecule: values may come before it.

Legend:
Rattus norvegicus [1] = test: Antifibrotic activity in […] rat bleomycin-induced pulmonary fibrosis model assessed as hydroxyproline content in lung at 0.04 g/day administered via oral gavage by spectrophotometric analysis; assay type: functional
Rattus norvegicus [2] = test: Anti-inflammatory activity in Sprague-Dawley rat assessed as inhibition of LPS-induced TNFalpha production administered via oral gavage for 1 hr followed by LPS challenge measured after 1.5 hrs by ELISA; assay type: functional
[3] = biological target: T1, Interleukin-8 receptors, CXCR1/CXCR2 (Homo sapiens) (UniProt P25025+P25024); test: Inhibition of IL-8 interaction with CXCR1/CXCR2 in human PMN leukocytes assessed as reduction in leukocyte migration after 5 days in presence of Diff-Quick staining by matrigel based microscopic analysis; assay type: cell-based; settings: concentration not given here
[4] = biological target: T1, Interleukin-8 receptors, CXCR1/CXCR2 (Homo sapiens); test: Inhibition of […] interaction with CXCR1/CXCR2 in human PMN leukocytes assessed as reduction in leukocyte migration after 5 days in presence of Diff-Quick staining by matrigel based microscopic analysis; assay type: cell-based; settings: concentration not given here
[5] = biological target: T1, Interleukin-8 receptors, CXCR1/CXCR2 (Homo sapiens); test: Inhibition of GROalpha interaction with CXCR1/CXCR2 in human PMN leukocytes assessed as reduction in leukocyte migration after 5 days in presence of Diff-Quick staining by matrigel based microscopic analysis; assay type: cell-based; settings: concentration not given here
Cathepsin B = Cathepsin B (Homo sapiens, UniProt P07858); test: Inhibition of human liver cathepsin B using Boc-Leu-Arg-Arg-AMC as substrate preincubated for 15 mins followed by substrate addition measured after 30 mins by spectrofluorimetric analysis
[6] = Inhibition of TGF-beta (unknown origin); parameters: species or system Homo sapiens
A549 [7] = test: Antiproliferative activity against human A549 cells after 72 hrs by MTT assay; assay type: functional, cell-based; settings: A549, 72 h
NIH3T3 [8] = test: Anticancer activity against mouse NIH/3T3 cells after 24 hrs by cell titer 96 aqueous one solution based assay; settings: NIH3T3, 24 h
[9] = Inhibition of Wnt/beta-catenin signaling in human NL-20 cells by beta-catenin-based reporter assay; assay type: cell-based; settings: NL20
A549 [10] = test: Anticancer activity against human A549 cells after 24 hrs by cell titer 96 aqueous one solution based assay; assay type: functional; settings: A549, 24 h
NIH3T3 [11] = test: Antiproliferative activity against mouse NIH/3T3 cells by MTT assay; assay type: cell-based
[12] = biological target: T2, Mitogen-activated protein kinase kinase kinase 5 (Homo sapiens, UniProt Q99683); test: Inhibition of recombinant human ASK1 using STK3 peptide as substrate incubated for 30 mins followed by ATP addition measured for 3 hrs by TR-FRET assay
T2 sequence (Q99683 whole entry): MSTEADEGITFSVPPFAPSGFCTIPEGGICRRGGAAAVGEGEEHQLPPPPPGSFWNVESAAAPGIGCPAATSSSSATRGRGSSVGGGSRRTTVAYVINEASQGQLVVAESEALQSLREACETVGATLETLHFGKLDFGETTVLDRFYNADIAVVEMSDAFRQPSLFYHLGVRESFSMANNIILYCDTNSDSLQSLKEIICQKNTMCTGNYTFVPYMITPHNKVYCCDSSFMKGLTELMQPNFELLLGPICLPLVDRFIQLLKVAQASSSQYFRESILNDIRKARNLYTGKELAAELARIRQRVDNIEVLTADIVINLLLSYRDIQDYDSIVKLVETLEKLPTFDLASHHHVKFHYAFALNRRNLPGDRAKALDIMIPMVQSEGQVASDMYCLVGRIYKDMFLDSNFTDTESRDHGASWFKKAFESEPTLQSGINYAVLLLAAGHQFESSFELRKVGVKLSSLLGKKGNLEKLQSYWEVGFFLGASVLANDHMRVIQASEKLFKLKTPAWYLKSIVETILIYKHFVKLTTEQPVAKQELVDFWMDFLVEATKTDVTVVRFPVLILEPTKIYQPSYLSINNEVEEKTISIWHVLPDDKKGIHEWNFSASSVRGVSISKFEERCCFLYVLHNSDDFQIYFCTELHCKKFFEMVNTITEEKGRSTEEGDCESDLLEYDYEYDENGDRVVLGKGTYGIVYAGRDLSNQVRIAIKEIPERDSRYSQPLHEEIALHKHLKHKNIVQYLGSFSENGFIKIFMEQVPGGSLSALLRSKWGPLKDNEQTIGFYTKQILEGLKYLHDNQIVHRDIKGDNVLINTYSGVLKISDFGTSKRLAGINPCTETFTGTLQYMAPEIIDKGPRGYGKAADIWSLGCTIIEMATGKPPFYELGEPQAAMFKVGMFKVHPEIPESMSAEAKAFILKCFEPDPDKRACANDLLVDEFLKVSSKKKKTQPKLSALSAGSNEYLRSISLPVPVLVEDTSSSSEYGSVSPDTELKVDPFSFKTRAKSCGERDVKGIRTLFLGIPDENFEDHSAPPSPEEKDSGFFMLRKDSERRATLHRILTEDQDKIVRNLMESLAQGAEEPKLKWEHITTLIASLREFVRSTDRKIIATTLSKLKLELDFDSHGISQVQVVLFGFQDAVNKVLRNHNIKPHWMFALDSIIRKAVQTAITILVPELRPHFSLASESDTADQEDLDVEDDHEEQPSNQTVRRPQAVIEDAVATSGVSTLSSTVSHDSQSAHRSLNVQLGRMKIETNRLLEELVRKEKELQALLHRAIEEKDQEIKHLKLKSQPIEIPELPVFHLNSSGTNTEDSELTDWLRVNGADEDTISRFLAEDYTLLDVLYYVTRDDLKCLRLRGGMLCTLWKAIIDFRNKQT

NIH3T3 [13] = test: Antiproliferative activity against mouse NIH/3T3 cells; assay type: cell-based
NIH3T3 [14] = test: Antiproliferative activity against mouse NIH/3T3 cells after 72 hrs by MTT assay; assay type: cell-based; settings: NIH3T3, 72 h
[15] = biological target: Disintegrin and metalloproteinase domain-containing protein 17 (Homo sapiens, UniProt P78536); test: Inhibition of recombinant TACE catalytic domain (unknown origin) using pro-TNFalpha peptide Abz-LAQAVRSSSR-Dpa as substrate preincubated for 10 mins followed by substrate addition measured after 10 mins by FRET assay
[16] = Elimination half life in healthy human at 801 mg; assay type: ADME; settings: in vivo, read-out: beta t1/2 (converted)

Sequence of Disintegrin and metalloproteinase domain-containing protein 17 (P78536 whole entry, the tested form may be a part): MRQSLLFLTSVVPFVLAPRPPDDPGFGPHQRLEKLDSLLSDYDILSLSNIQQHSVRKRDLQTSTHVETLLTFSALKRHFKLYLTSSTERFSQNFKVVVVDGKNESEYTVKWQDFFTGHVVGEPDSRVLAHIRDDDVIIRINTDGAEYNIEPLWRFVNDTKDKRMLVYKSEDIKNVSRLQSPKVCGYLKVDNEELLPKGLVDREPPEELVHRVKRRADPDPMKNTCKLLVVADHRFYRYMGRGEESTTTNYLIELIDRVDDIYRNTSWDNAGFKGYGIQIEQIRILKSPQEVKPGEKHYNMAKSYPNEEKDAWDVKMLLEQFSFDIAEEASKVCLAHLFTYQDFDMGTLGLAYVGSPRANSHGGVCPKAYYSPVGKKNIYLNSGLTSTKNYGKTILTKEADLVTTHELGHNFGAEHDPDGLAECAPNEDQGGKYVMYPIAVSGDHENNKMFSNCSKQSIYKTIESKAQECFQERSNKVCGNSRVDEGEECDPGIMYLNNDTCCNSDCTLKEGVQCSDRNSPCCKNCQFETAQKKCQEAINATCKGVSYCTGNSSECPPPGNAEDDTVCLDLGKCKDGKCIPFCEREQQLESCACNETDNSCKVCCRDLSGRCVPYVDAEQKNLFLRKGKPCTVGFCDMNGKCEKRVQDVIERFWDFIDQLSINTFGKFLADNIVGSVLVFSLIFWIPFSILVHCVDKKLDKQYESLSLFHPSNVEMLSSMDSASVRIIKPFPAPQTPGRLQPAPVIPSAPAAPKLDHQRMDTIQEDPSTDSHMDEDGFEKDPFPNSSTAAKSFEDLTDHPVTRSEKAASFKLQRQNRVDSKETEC

SMILES: CCOc1ccc(-n2c(N)c(C#N)c(-c3ccccc3)c(C#N)c2=O)cc1
Activity (Rattus norvegicus [1]): 48.55 µmol

SMILES: CCC(=O)NC1CCC(c2nc(-c3cc(C(F)(F)F)ccc3OC3CC3)c3c(n2)C(C(=O)NC)C(C)N3)CC1 (stereo not given)
inhibition (INH) (Rattus norvegicus [2]): 7 - 99%

SMILES: C[C@@H](C(=O)NCCN1CCCC1)c1ccc(OS(=O)(=O)C(F)(F)F)cc1
inhibition [3]: 52% | inhibition [4]: 65% | inhibition [5]: 0%

SMILES: COc1ccc2c(O[C@@H]3C[C@H](C(=O)N[C@@H](CC4CC4)C(=O)C(=O)NC4CC4)N(C[C@@H](NC(=O)NC(C)(C)C)C(C)(C)C)C3)nccc2c1
IC50 (Cathepsin B): 0.027 µM

SMILES: Cc1cccc(-n2cc(COc3ccccc3)ccc2=O)c1
IC50 (NIH3T3 [8]): 16 µM

SMILES: CCOc1ccc(-n2c(C)cc(C)c(C#N)c2=O)cc1
Activity (Rattus norvegicus [1]): 119.55 µmol

SMILES: CNC(=O)C1c2nc(C3CCC(NC(=O)COC)CC3)nc(-c3cc(C(F)(F)F)ccc3OC3CC3)c2NC1C (stereo not given)
inhibition (INH) (Rattus norvegicus [2]): 7 - 99%

SMILES: CNC(=O)C1c2nc(C3CCC(NC(=O)COC)CC3)nc(-c3ccc(F)cc3OC3CC3)c2NC1C (stereo not given)
inhibition (INH) (Rattus norvegicus [2]): 7 - 99%

SMILES: CNC(=O)C1c2nc(C3CCC(NC(C)=O)CC3)nc(-c3cc(C(F)(F)F)ccc3OC3CC3)c2NC1C (stereo not given)
inhibition (INH) (Rattus norvegicus [2]): 7 - 99%

SMILES: Cc1cc(CC(C)C)ccc1CC(=O)NS(C)(=O)=O
inhibition [3]: 67% | inhibition [5]: 0%

SMILES: CNC(=O)C1c2nc(C3CCC(NC(=O)COC)CC3)nc(-c3cc(C)ccc3OC3CC3)c2NC1C (stereo not given)
inhibition (INH) (Rattus norvegicus [2]): 7 - 99%

SMILES: O=C(O)c1cc2c(O)cccc2n(-c2ccc(F)cc2Cl)c1=O
IC50 (NIH3T3 [11]): 90 µM

SMILES: CC(n1cnnc1-c1nc(NC(=O)c2cc(-n3cnc(C4CC4)c3)c(N3CCCCC3)cn2)cs1)C(F)(F)F (stereo not given)
IC50 [12]: 0.0007 µM

SMILES: Cc1ccc(=O)n(-c2cccc(F)c2)c1 [FLUOROFENIDONE]
IC50 (NIH3T3 [11]): 4200 µM

SMILES: CO[C@H]1O[C@H](CNc2ccccc2Cn2cc(C(F)(F)F)ccc2=O)[C@@H](O)[C@H](O)[C@H]1O
IC50 (NIH3T3 [13]): 170 µM

SMILES: CCC(=O)c1cccc(CC(=O)O)c1Cl
inhibition [3]: 67% | inhibition [5]: 27%

SMILES: O=c1ccc(CNc2ccccc2F)cn1Cc1ccccc1
IC50 (NIH3T3 [14]): 3 µM

SMILES: C[C@@H](C(=O)NCCCN1CCCC1)c1ccc(OS(=O)(=O)C(F)(F)F)cc1
inhibition [3]: 51% | inhibition [4]: 67% | inhibition [5]: 0%

SMILES: O=c1ccc(COc2ccccc2)cn1-c1ccc(Cl)cc1
IC50 (NIH3T3 [8]): 14 µM

SMILES: O=c1ccc2c(n1-c1ccc(Br)cc1)CCCC2O (stereo not given)
IC50 (NIH3T3 [11]): 300 µM

More lines, main results first:

IC50 [6]: 0.02 µM
SMILES: NC(=O)c1cnccc1Nc1nc(-c2cc(Cl)ccc2F)nc2ncccc12

IC50 (A549 [7]): 130 µM
SMILES: Cc1cccc(NCc2ccc(=O)n(Cc3ccccc3)c2)c1

IC50 [9]: 0.175 µM
SMILES: Nc1cncc(-c2cnc3[nH]nc(-c4nc5c(-c6cccc(F)c6)cncc5[nH]4)c3c2)c1

IC50 [9]: 0.44 to 1.9 µM
SMILES: CN(C)c1cncc(-c2cnc3[nH]nc(-c4nc5c(-c6cccc(F)c6)cncc5[nH]4)c3c2)c1

IC50 (A549 [10]): 130 µM
SMILES: Cc1cccc(-n2cc(CNc3ccccc3)ccc2=O)c1

IC50 [9]: 1.09 µM
SMILES: CN(C)c1cncc(-c2cnc3[nH]nc(-c4nc5c(-c6cccs6)cncc5[nH]4)c3c2)c1

IC50 [9]: 0.067 µM
SMILES: CC(C)Nc1cncc(-c2cnc3[nH]nc(-c4nc5c(-c6cncc(F)c6)cncc5[nH]4)c3c2)c1

IC50 [15]: 0.0006 µM
SMILES: Cc1cc(COc2ccc(S(=O)(=O)N[C@@H]3CCC[C@@H]3C(=O)NO)cc2)c2ccccc2n1

half-life [16]: 3 h
SMILES: Cc1ccc(=O)n(-c2ccccc2)c1 [PIRFENIDONE]
Activity (Rattus norvegicus [1]): 158.39 µmol | IC50 (NIH3T3 [14]): 454 µM

IC50 (A549 [7]): 20 µM
SMILES: COc1ccc(Cn2cc(COc3ccc(F)cc3)ccc2=O)cc1
IC50 (NIH3T3 [14]): 55 µM

IC50 [6]: 0.07 µM
SMILES: CNC(=O)c1cnccc1Nc1nc(-c2cc(Cl)ccc2F)nc2ncccc12
